In publication PMC7619385 (ACS infectious diseases, 2025):
Like-named read-outs stand apart in the source and are kept apart here.

How the values were obtained:
LmxCLK1 = target: T1, LmxCLK1 (Leishmania mexicana, UniProt E9AMP2); assay: biochemical; type: binding
T1 sequence (E9AMP2 1-422): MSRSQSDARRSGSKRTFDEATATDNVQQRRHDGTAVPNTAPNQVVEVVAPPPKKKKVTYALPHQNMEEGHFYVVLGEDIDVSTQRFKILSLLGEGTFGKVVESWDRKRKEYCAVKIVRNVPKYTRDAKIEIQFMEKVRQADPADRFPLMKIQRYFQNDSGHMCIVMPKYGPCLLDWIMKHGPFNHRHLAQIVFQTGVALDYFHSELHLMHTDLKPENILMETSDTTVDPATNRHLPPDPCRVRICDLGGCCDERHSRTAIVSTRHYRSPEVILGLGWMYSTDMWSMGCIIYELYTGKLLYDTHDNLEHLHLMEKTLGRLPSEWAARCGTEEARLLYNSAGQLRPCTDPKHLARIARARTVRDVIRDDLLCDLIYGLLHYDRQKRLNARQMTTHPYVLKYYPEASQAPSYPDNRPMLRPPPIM

NLuc::LmxCLK1 = NLuc::LmxCLK1 (Leishmania mexicana, UniProt E9AMP2); assay: cell-based; type: cell-based; details: for Target occupancy Run 1 / Target occupancy Run 2 / Target occupancy Average: 10 µM compound, tracer SV366, promastigotes; for Target occupancy Average: mean of two experiments
Protocol: All compounds were tested at a fixed concentration of 10 µM to enable direct comparison of their target occupancy in live cells.
Serially diluted probes (5 µL) were added to 85 µL of cells in culture media or 85 µL of purified protein. Final well volumes were adjusted to 100 µL with sterile Opti-MEM™ I Reduced Serum Medium (Thermo-Scientific) – for wells containing cells; or Kinase Buffer - for wells containing purified protein. For tracer displacement assays, samples were prepared as above, but final volume was brought to 100 µL by addition of vehicle or serially-diluted test compounds. Final DMSO concentration in these assays was 1%. […] Light emissions at 460+10 nm (BRET donor) and at 610+20 nm (BRET acceptor) were sequentially recorded (integration time = 0.5 s, gain = 3600) using a luminometer (BMG LABTECH Clariostar or Biotek Synergy HT). BRET values are reported in milli-BRET (mBRET) units (mBU), obtained by dividing the acceptor luminescence by the donor luminescence and multiplying the result by a factor of 1,000. BRET values were converted to blank-corrected probe occupancies (%) according to equation [1]: (1) Probeoccupancy(%)=X−Z/Y−Z×100 where X = mBRET value in the presence of the test compound and the probe, Y = mBRET value in the presence of probe only, and Z = mBRET value in the absence of probe and test compound. […]

[1] = DSF, 10 µM compound, 2 µM LmxCLK1, Run 1
[2] = DSF, 10 µM compound, 2 µM LmxCLK1, Run 2
[3] = DSF, 10 µM compound, 2 µM LmxCLK1, mean of two runs
[4] = DSF, 10 µM compound, 2 µM LmxCLK1, Run 1, read-out: ΔTm Run 1
[5] = DSF, 10 µM compound, 2 µM LmxCLK1, Run 2, read-out: ΔTm Run 2
[6] = DSF, 10 µM compound, 2 µM LmxCLK1, mean of two runs, read-out: ΔTm Average
[7] = read-out: Target occupancy Average
[8] = read-out: Target occupancy Run 1
[9] = read-out: Target occupancy Run 2

Structure (SMILES) | ΔTm Run 1 (LmxCLK1; [1]) | ΔTm Run 2 (LmxCLK1; [2]) | ΔTm Average (LmxCLK1; [3]) | Target occupancy Run 1 (NLuc::LmxCLK1) | Target occupancy Run 2 (NLuc::LmxCLK1) | Target occupancy Average (NLuc::LmxCLK1) | ΔTm at 10 µM (LmxCLK1; [4]) | ΔTm at 10 µM (LmxCLK1; [5]) | ΔTm at 10 µM (LmxCLK1; [6]) | receptor occupancy at 10 µM (NLuc::LmxCLK1; [7]) | receptor occupancy at 10 µM (NLuc::LmxCLK1; [8]) | receptor occupancy at 10 µM (NLuc::LmxCLK1; [9]) | ΔTm Average (LmxCLK1) | ΔTm Run 1 (LmxCLK1) | ΔTm Run 2 (LmxCLK1)
CN1CCCN(C(=O)c2cccc(-c3ccc(/C=C4/C(=O)Nc5ccc(Cl)cc54)o3)c2)CC1.Cl [CX-6258 HCl] | 0.1 °C | -0.4 °C | -0.1 °C | -0.5% | -26.8% | -13.6% |  |  |  |  |  |  |  |  | 
CC(C)(C)c1nc(-c2cccc(NS(=O)(=O)c3c(F)cccc3F)c2F)c(-c2ccnc(N)n2)s1 [Dabrafenib (GSK2118436)] | -0.2 °C | 0.0 °C | -0.1 °C | 0.7% | -7.9% | -3.6% |  |  |  |  |  |  |  |  | 
COc1cc2ncnc(Nc3ccc(F)c(Cl)c3)c2cc1NC(=O)/C=C/CN1CCCCC1 [Dacomitinib (PF299804)] | -0.4 °C | -0.5 °C | -0.4 °C | 1.4% | -14.2% | -6.4% |  |  |  |  |  |  |  |  | 
Cc1nc(Nc2ncc(C(=O)Nc3c(C)cccc3Cl)s2)cc(N2CCN(CCO)CC2)n1 [Dasatinib] |  |  |  |  |  |  | -0.1 °C | -0.2 °C | -0.1 °C | -14.6% | 1.5% | -30.7% |  |  | 
Cn1cc(C2=C(c3cn(C4CCN(Cc5ccccn5)CC4)c4ccccc34)C(=O)NC2=O)c2ccccc21 [Enzastaurin (LY317615)] | 0.1 °C | -0.2 °C | 0.0 °C | 2.6% | -1.9% | 0.3% |  |  |  |  |  |  |  |  | 
C#Cc1cccc(Nc2ncnc3cc(OCCOC)c(OCCOC)cc23)c1.Cl [Erlotinib HCl (OSI-744)] | 0.1 °C | 0.1 °C | 0.1 °C | -0.1% | -7.3% | -3.7% |  |  |  |  |  |  |  |  | 
Cl.O=S(=O)(c1cccc2cnccc12)N1CCCNCC1 [Fasudil (HA-1077) HCl] | 0.9 °C | 0.6 °C | 0.7 °C | 6.9% | -10.2% | -1.7% |  |  |  |  |  |  |  |  | 
O=C(Nc1nc2cccc(-c3ccc(CN4CCS(=O)(=O)CC4)cc3)n2n1)C1CC1 [Filgotinib (GLPG0634)] |  |  |  |  |  |  | 0.2 °C | -0.4 °C | -0.1 °C | -15.3% | -9.1% | -21.6% |  |  | 
CN1CC[C@H](c2c(O)cc(O)c3c(=O)cc(-c4ccccc4Cl)oc23)[C@H](O)C1.Cl [Flavopiridol HCl] | 0.1 °C | -0.1 °C | 0.0 °C | 1.6% | -3.3% | -0.8% |  |  |  |  |  |  |  |  | 
COc1cc(Nc2ncc(F)c(Nc3ccc4c(n3)N(COP(=O)(O)O)C(=O)C(C)(C)O4)n2)cc(OC)c1OC [Fostamatinib (R788)] | 0.2 °C | 0.2 °C | 0.2 °C | 0.9% | -17.9% | -8.5% |  |  |  |  |  |  |  |  | 
CC(C)NC[C@@H](C(=O)N1CCN(c2ncnc3c2[C@H](C)C[C@H]3O)CC1)c1ccc(Cl)cc1 [GDC-0068] |  |  |  |  |  |  | 0.4 °C | 0 °C | 0.2 °C | 0.3% | 6% | -5.5% |  |  | 
CN(C)CCCn1cc(C2=C(c3c[nH]c4ccccc34)C(=O)NC2=O)c2ccccc21 [GF109203X] |  |  |  | -5.7% | -5.0% | -5.4% |  |  |  |  |  |  | 0.2 °C | 0.3 °C | 0.1 °C
CCNc1nc(Nc2cc(F)c(C(=O)N3CCOCC3)cc2OC)ncc1C(F)(F)F [GNE-7915] |  |  |  |  |  |  | -0.1 °C | -0.5 °C | -0.3 °C | -3.7% | -10.5% | 3.1% |  |  | 
CNc1nc(Nc2cnn([C@H]3CCN(C4COC4)C[C@@H]3F)c2Cl)ncc1C(F)(F)F [GNE-9605] |  |  |  | 3.1% | -5.2% | -1.1% |  |  |  |  |  |  | -0.4 | -0.2 | -0.5
NC(=O)c1cccc(-c2cc(Nc3ccc(OC(F)(F)F)cc3)ncn2)c1 [GNF-2] |  |  |  | -8.5% | -14.2% | -11.3% |  |  |  |  |  |  | -0.2 | -0.2 | -0.3
O=C(NCCO)c1cccc(-c2cc(Nc3ccc(OC(F)(F)F)cc3)ncn2)c1 [GNF-5] |  |  |  | -7.9% | -2.3% | -5.1% |  |  |  |  |  |  | -0.3 | -0.2 | -0.3
O=C(O)c1ccc(-c2c[nH]c3ncc(-c4ccccc4)cc23)cc1C1CCCC1 [GSK650394] |  |  |  |  |  |  | -0.4 °C | -0.3 °C | -0.3 °C | -8.8% | -24.3% | 6.7% |  |  | 
O=C1NC(=O)/C(=C/c2ccc3nccc(-c4ccncc4)c3c2)S1 [GSK1059615] |  |  |  |  |  |  | 0.3 °C | -0.2 °C | 0 °C | -2.8% | -4.2% | -1.5% |  |  | 
Cc1c(Cn2c(C)nc3c(C(=O)O)cc(N4CCOCC4)cc32)cccc1C(F)(F)F [GSK2636771] |  |  |  |  |  |  | 0.2 °C | 0.1 °C | 0.1 °C | -2.2% | 2.9% | -7.3% |  |  | 
O=C1Nc2ccc(I)cc2/C1=C/c1cc(Br)c(O)c(Br)c1 [GW5074] | 0.0 °C | -0.4 °C | -0.2 °C | -7.5% | -6.2% | -6.8% |  |  |  |  |  |  |  |  | 
COc1ccc2c(c1)c(C1=C(c3c[nH]c4ccccc34)C(=O)NC1=O)cn2CCCN(C)C [Go 6983] | 0.6 °C | 0.0 °C | 0.3 °C | -11.0% | -14.1% | -12.6% |  |  |  |  |  |  |  |  | 
O=C(c1ccc(Nc2nccc(-c3cc4ccccc4s3)n2)cc1)N1CCC(N2CCCC2)CC1 [IKK-16 (IKK Inhibitor VII)] | 1.9 °C | 1.6 °C | 1.8 °C | 10.2% | -10.2% | 0.0% |  |  |  |  |  |  |  |  | 
Cc1[nH]c2ccccc2c1C1=C(NCCc2ccc(F)cc2)C(=O)N(C)C1=O [IM-12] |  |  |  | -0.3% | -14.5% | -7.4% |  |  |  |  |  |  | -0.2 | -0.2 | -0.3
CC(C)n1nc(-c2ccc3oc(N)nc3c2)c2c(N)ncnc21 [INK 128 (MLN0128)] | 0.6 °C | 0.5 °C | 0.5 °C | -0.8% | 0.1% | -0.3% |  |  |  |  |  |  |  |  | 
C=CS(=O)(=O)NC1CCN(C(=O)CNc2cc(I)c(Cl)cc2OC)CC1 [K-Ras(G12C) inhibitor 9] | 0.3 °C | -0.6 °C | -0.1 °C | -21.1% | -10.0% | -15.5% |  |  |  |  |  |  |  |  | 
O=c1cc(-c2cccc3c2Sc2ccccc2S3)oc(N2CCOCC2)c1 [KU-55933 (ATM Kinase Inhibitor)] | 0.6 °C | 0.2 °C | 0.4 °C | 4.0% | -21.9% | -9.0% |  |  |  |  |  |  |  |  | 
